Data published in patent US20200093782A1, “ARIANTS OF 2-[6-(4-CHLOROPHENOXY)HEXYL]-OXIRANE-2-CARBOXYLIC ACID FOR USE IN THE TREATMENT, PREVENTION AND/OR AMELIORATION OF BRAIN DISEASES” (Meta-IQ ApS, priority 2016, published 2020).

Tests used:
Male Wistar rats = experiment: Chronic mild stress (CMS) induced depression, sucrose consumption test; assay type: in vivo, rat
Description: Treatment of stress-induced depression by blocking carnitine palmitoyl transferase 1 Rats were initially exposed to four weeks of CMS and subsequently exposed to stressors for another five weeks combined with drug or vehicle treatment (FIG. 7). The intake of sucrose solution was used in order to determine the depression status among rats. […] Moreover, statistical significant difference was found between Escitalopram and Etomoxir treatment in week two, four and five.
The percentage of animals responding over time receiving Etomoxir, Escitalopram or vehicle was compared (FIG. 8). The criterion for responders was set at 20% increase in intake of sucrose at the respective weeks compared to baseline prior to onset of treatment. The percentage of responding rats to Etomoxir treatment was higher than Escitalopram treatment.
Male Wistar rats were used for the CMS model. The weight of the rats was approximately 200 g when the experiment was initiated. The rats were housed singly with 12 h light/dark cycle and food and water was available ad libitum except when these parameters were applied as stress inducers. The following paragraphs concerning the CMS model was performed according to the protocol by Wiborg et al.
In order to quantify the hedonic state of the animals a sucrose consumption test was performed. The animals were trained in five weeks in order to consume a palatable sucrose solution. […]

rats [1] = experiment: Sucrose consumption in rats after drinking the drug (test of crossing the BBB); assay type: in vivo, rat
Description: First rats are given R(+)-etomoxir ethyl ester formulated water (4 mg/day) every day for 20 days. Then once a week the sucrose consumption was measured. This study is designed to test is R(+)-etomoxir ethyl ester reaches the brain and therefore is it can cross the blood-brain-barrier (BBB).
Blocking CPT-1 in hypothalamus (applied in the drinking water) […] food intake.

rats [2] = experiment: Long term memory test (light/dark shock compartment) with or without MK801; assay type: in vivo, rat; details: MK801, sub cutaneous injection 1 hour before the test
Description: Rats are put in a cage where in the dark part (where they like to be) the bedding gives a shock. They are put in the light part during training. The next day the rats are put in the light part again, when long term memory is there, they will not like to go in the dark part (shock compartment).
MK801, blocks the generation of memory.
(§1) Etomoxir was given by sub cutaneous injection 1 hour before the test.

C57B16 mice = experiment: Mouse EAE model (MOG 35-55), therapeutic treatment; assay type: in vivo; details: 1 mg/kg/day s.c. in olive oil for 2 weeks, start ten days after MOG injection
Description: Six week old C57B16 mice were bred and kept at conventional animal facilities at the University of Copenhagen. Female Lewis rats, 2 months old were used for this study.
All animals were weighed and scored clinically on a daily basis. During progression of EAE, leading to motor disabilities, animals had water in a Petri dish and soaked chow for easy intake to ensure sufficient intake of liquid and nutrients. Healthy animals were used as comparison and control of the EAE exposed animals. […]
The animals were monitored daily, weighed and clinically scored according to the following scale (Imrich and Harzer 2001): 0, no clinical signs of EAE; 1, loss of tail tonus; 2, mild paresis in one or both hindlimbs; 3, moderate paresis in one or both hindlimbs; 4, severe paresis or paralysis in one or both hindlimbs; 5, paralysis in one or both hindlimbs and visible paresis in one or both forelimbs, incontinence; 6, moribund. […]
CPT1 Blockers Have a Therapeutic Effect in Rodent Models with EAE. […] The animals were daily tested for body weight and disease score (Disease was scored as follows; 0=no disease, 1=limp tail, 2=hind-limb paresis, 3=hind-limb paralysis, 4=hind/forelimb paralysis, and 5=death). […]

Lewis rats = experiment: Rat EAE model (MBP in CFA); assay type: in vivo
rats [3] = experiment: Short term memory test (3 corridors, alternation ratio) with or without MK801; assay type: in vivo, rat; details: MK801, sub cutaneous injection 1 hour before the test
Description: Rats are put in a compartment with 3 corridors. While looking for food, they will first go in 1 corridor, then when no food is found go in the next and when they have a good short term memory, go in the 3rd after that. (this is measured as alternation ratio) MK801 destroys short term memory. Etomoxir restores short term memory.
as §1

SMILES	percentage of responding (healthy) rats (Male Wistar rats; 5 weeks of treatment with continued stress, responder = 20% increase in sucrose intake vs baseline) [%]	intake of sucrose solution compared to vehicle group (Male Wistar rats; five weeks of i.p. daily treatment under stress, Etomoxir 4 mg/kg, Escitalopram 5 mg/kg)	sucrose consumption (rats [1]; 4 mg/day in drinking water, every day for 20 days, measured once a week)	crossing of the blood-brain-barrier (BBB) (rats [1]; oral (drinking water), concluded from increased sucrose consumption)	animals with restored long term memory (rats [2]) [%]	symptom-free animals at the end of the study (C57B16 mice) [%]	therapeutic effects when started at day 1 or day 5 (Lewis rats; treatment from day 1 or day 5 after induction, compared with placebo)	disease- and symptom-free rats (Lewis rats; treatment started at day 7 after induction, read at day 11 (end of study)) [%]	short term memory (rats [3])
CN(C)CCC[C@@]1(c2ccc(F)cc2)OCc2cc(C#N)ccc21 [Escitalopram]	57	no significant difference	–	–	–	–	–	–	–
CCOC(=O)[C@@]1(CCCCCCOc2ccc(Cl)cc2)CO1 [R(+)-etomoxir ethyl ester, R(+)-2-[6-(4-chlorophenoxy)hexyl]-oxirane-2-carboxylic acid ethyl ester]	–	–	increased sucrose consumption	can cross the blood-brain-barrier (BBB) and reach the brain	40	52	significantly better therapeutic effects compared to IFNb	25	restores the animal's short term memory
